Consider eight compounds from patent US6358883B1, “Pesticidal and parasiticidal use of 1-aryl-1-(substituted thio, sulfinyl and sulfonyl)-2-nitroethane compounds” (American Cyanamid Company, priority 1998, dated 2002).

The structures appear in SMILES notation.

What all share (assay type): in vivo
The subject of experiment [1] is M. incognita (Root Knot Nematode) larvae. Put plainly: Evaluation of test compounds against M. incognita larvae in microtiter plate wells (movement score). Note: key: A score of '9' indicates inactive worms with a straight, sticklike morphology; A score of '8' indicates inactive worms with a limp, curled or curved morphology; A score of '7' indicates dead/paralyzed worms after 72 hours. As to conditions: larvae scored for movement after 20-24 hours. The procedure, abridged: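 Newly emerged M. incognita larvae in S Medium (buffered salt solution), 50-65 worms per well, exposed to test compounds in sealed microtiter wells. Movement scored after 20-24 h incubation; wells with obviously dead/paralyzed larvae scored positive. A score of "7" denotes dead/paralyzed worms after […].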

The test system of experiment [2] is C. elegans (Bristol strain). Put plainly: Evaluation of test compounds against C. elegans (motility, 96-well plate). On the set-up: key: 9=complete kill in 4 hours; 8=complete kill in 24 hours; 7=markedly reduced motility in approximately 95% of worms in 24 hours; 0=normal motility, same as controls. As to conditions: motility at 4 and 24 hours. The procedure, abridged: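 Bristol-strain C. elegans in Na buffer added to wells containing dried compound (applied in 80% acetone) and incubated at 20 °C. Motility of adults and larvae scored subjectively but semi-quantitatively under a dissecting microscope at 4 and 24 h after immersion, plates tapped before reading.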

Experiment [3] relates to Spodoptera eridania, 2nd instar larvae, southern armyworm (SAW). Put plainly: Southern armyworm (SAW) leaf dip test. Details: key: 0 = no effect; 1 = 10-25% kill; 2 = 26-35% kill; 3 = 36-45% kill; 4 = 46-55% kill; 5 = 56-65% kill; 6 = 66-75% kill; 7 = 76-85% kill; 8 = 86-99% kill; 9 = 100% kill. An outline of the steps:
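Compound is dissolved at 10,000 ppm in 35% acetone/water, then diluted with water. Lima bean leaves are dipped for 3 seconds, dried and placed with ten 2nd instar larvae on damp filter paper. Mortality, reduced feeding and molting interference are scored at 5 days.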

Experiment [4] relates to Diabrotica virgifera virgifera Leconte, 2nd instar western corn rootworm (WCR). Put plainly: Western corn rootworm (WCR) soil test. Details: key: 0 = no effect; 1 = 10-25% kill; 2 = 26-35% kill; 3 = 36-45% kill; 4 = 46-55% kill; 5 = 56-65% kill; 6 = 66-75% kill; 7 = 76-85% kill; 8 = 86-99% kill; 9 = 100% kill. An outline of the steps:
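Compound in 35% acetone/water applied to talc at 1.25 mg active ingredient per jar (about 50 kg/ha), solvent evaporated, then mixed with millet seed and moist soil. Ten 2nd-instar larvae per jar; mortality counted after 5 days, missing larvae scored dead.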

Experiment [5] deals with Tetranychus urticae (OP-resistant strain), 2-spotted spider mite (TSM). The experiment in a line: 2-spotted spider mite (TSM) plant dip test. Details: key: 0 = no effect; 1 = 10-25% kill; 2 = 26-35% kill; 3 = 36-45% kill; 4 = 46-55% kill; 5 = 56-65% kill; 6 = 66-75% kill; 7 = 76-85% kill; 8 = 86-99% kill; 9 = 100% kill. To be noted: mortality after 2 days. The procedure, abridged: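 OP-resistant mites (~100 per leaf) were transferred onto Sieva lima bean primary leaves about 2 h before treatment. Infested plants were dipped for 3 s in compound from a 10,000 ppm stock in 35% acetone/water, diluted with water. Mortality was counted after 2 days.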

Experiment [6] relates to Aphis gossypii, cotton aphid (CA). Put plainly: Cotton aphid (CA) cotyledon dip test. Details: key: 0 = no effect; 1 = 10-25% kill; 2 = 26-35% kill; 3 = 36-45% kill; 4 = 46-55% kill; 5 = 56-65% kill; 6 = 66-75% kill; 7 = 76-85% kill; 8 = 86-99% kill; 9 = 100% kill. To be noted: mortality after 5 days. The procedure, abridged:
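Cotyledon-stage cotton plants infested overnight via a heavily infested leaf, then dipped in test solution (compound in 35% acetone/water, diluted with water) and dried. Mortality counted after 5 days.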

In experiment [7] the test system is Spodoptera eridania, eggs-southern armyworm (SAW-Eggs). The experiment in a line: Southern armyworm eggs (SAW-Eggs) treated diet test. Details: key: 0 = no effect; 1 = 10-25% kill; 2 = 26-35% kill; 3 = 36-45% kill; 4 = 46-55% kill; 5 = 56-65% kill; 6 = 66-75% kill; 7 = 76-85% kill; 8 = 86-99% kill; 9 = 100% kill. To be noted: mortality after 7 days. The procedure, abridged:
(§1)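 Compounds dissolved at 10,000 ppm in 35% acetone/water, diluted with water, applied to artificial diet in wells and dried. Southern corn rootworm or southern armyworm eggs placed on treated diet under vented covers; mortality counted after 7 days.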

Experiment [8] deals with Diabrotica undecimpunctata howardi, eggs-southern corn rootworm (SCR-Eggs). The experiment in a line: Southern corn rootworm eggs (SCR-Eggs) treated diet test. On the set-up: key: 0 = no effect; 1 = 10-25% kill; 2 = 26-35% kill; 3 = 36-45% kill; 4 = 46-55% kill; 5 = 56-65% kill; 6 = 66-75% kill; 7 = 76-85% kill; 8 = 86-99% kill; 9 = 100% kill. As to conditions: mortality after 7 days. An outline of the steps:
as §1

In the case of `CCCCC(CC)COC(=O)CSC(C[N+](=O)[O-])c1ccc2c(c1)OCO2` (stereo not shown) [Example 22], the “M. incognita (150 ppm) score” value in experiment [1] was 0. Also, the “Rating Against C. elegans (150 ppm)” value in experiment [2] was 0. In addition, in experiment [3], the “SAW (300 ppm) rating” value is 0. For the same compound, the “WCR (50 ppm) rating” value in experiment [4] was found to be 0. In experiment [5], the “TSM (300 ppm) rating” value is given as 0. In experiment [6], the “CA (300 ppm) rating” value worked out at 0. For the same compound, in experiment [7], the “SAW Eggs (300 ppm) rating” value stood at 0. The “SCR Eggs (1000 ppm) rating” value in experiment [8] turned out to be 0.
As for `CCCOC(=O)CSC(C[N+](=O)[O-])c1ccccc1` (racemic) [Example 105], the “M. incognita (150 ppm) score” value in experiment [1] is on record as 0. Also, in experiment [2], the “Rating Against C. elegans (150 ppm)” value amounted to 9. For the same compound, the “SAW (300 ppm) rating” value in experiment [3] is on record as 3 (3 = 36-45% kill). Further, the “WCR (50 ppm) rating” value in experiment [4] was 3 (3 = 36-45% kill). Moreover, the “TSM (300 ppm) rating” value in experiment [5] is recorded as 0. Further, the “CA (300 ppm) rating” value in experiment [6] is listed as 0. Also, in experiment [7], the “SAW Eggs (300 ppm) rating” value amounted to 0. Further, the “SCR Eggs (1000 ppm) rating” value in experiment [8] is 0.
Consider `CCOC(=O)CSC(C[N+](=O)[O-])c1cccc(OC)c1` (stereo not shown) [Example 56], for which the “M. incognita (150 ppm) score” value in experiment [1] is 9. In addition, the “Rating Against C. elegans (150 ppm)” value in experiment [2] was determined as 8. In addition, the “SAW (300 ppm) rating” value in experiment [3] is 0. The “WCR (50 ppm) rating” value in experiment [4] is reported as 0. Moreover, the “TSM (300 ppm) rating” value in experiment [5] is given as 5 (5 = 56-65% kill). In experiment [6], the “CA (300 ppm) rating” value was found to be 0. For the same compound, the “SAW Eggs (300 ppm) rating” value in experiment [7] is listed as 0. Besides, the “SCR Eggs (1000 ppm) rating” value in experiment [8] was 0.
As to `CCCOC(=O)CSC(C[N+](=O)[O-])c1cccnc1` (stereo not shown) [Example 178], the “M. incognita (150 ppm) score” value in experiment [1] was 9. In addition, in experiment [2], the “Rating Against C. elegans (150 ppm)” value is 0. Moreover, the “SAW (300 ppm) rating” value in experiment [3] was 0. Moreover, in experiment [4], the “WCR (50 ppm) rating” value was 0. Further, the “TSM (300 ppm) rating” value in experiment [5] was determined as 0. Moreover, the “CA (300 ppm) rating” value in experiment [6] stood at 0. In addition, the “SAW Eggs (300 ppm) rating” value in experiment [7] was 0. Besides, the “SCR Eggs (1000 ppm) rating” value in experiment [8] came out at 0.
As for `COC(=O)CSC(C[N+](=O)[O-])c1cccc(OC)c1` (stereo not shown) [Example 55], the “M. incognita (150 ppm) score” value in experiment [1] was found to be 9. In addition, the “Rating Against C. elegans (150 ppm)” value in experiment [2] was found to be 8. For the same compound, the “SAW (300 ppm) rating” value in experiment [3] was 4 (4 = 46-55% kill). The “WCR (50 ppm) rating” value in experiment [4] is given as 0. Moreover, the “TSM (300 ppm) rating” value in experiment [5] was found to be 0. In addition, the “CA (300 ppm) rating” value in experiment [6] turned out to be 0. Besides, the “SAW Eggs (300 ppm) rating” value in experiment [7] was found to be 0. Moreover, the “SCR Eggs (1000 ppm) rating” value in experiment [8] was found to be 0.
Regarding `CCCCOC(=O)CSC(C[N+](=O)[O-])c1ccc(OC(F)(F)F)cc1` (racemic) [Example 120], in experiment [1], the “M. incognita (150 ppm) score” value was determined as 9. In experiment [2], the “Rating Against C. elegans (150 ppm)” value turned out to be 0. Also, the “SAW (300 ppm) rating” value in experiment [3] amounted to 0. The “WCR (50 ppm) rating” value in experiment [4] stood at 0. In addition, in experiment [5], the “TSM (300 ppm) rating” value is given as 0. Further, in experiment [6], the “CA (300 ppm) rating” value is 0. Besides, the “SAW Eggs (300 ppm) rating” value in experiment [7] turned out to be 0. The “SCR Eggs (1000 ppm) rating” value in experiment [8] is 0.
`CCCOC(=O)CSC(C[N+](=O)[O-])c1cccc(C#N)c1` (racemic) [Example 100]: the “M. incognita (150 ppm) score” value in experiment [1] is recorded as 0. Further, the “Rating Against C. elegans (150 ppm)” value in experiment [2] is given as 8. Moreover, the “SAW (300 ppm) rating” value in experiment [3] amounted to 0. Further, the “WCR (50 ppm) rating” value in experiment [4] was 0. The “TSM (300 ppm) rating” value in experiment [5] is 0. Besides, in experiment [6], the “CA (300 ppm) rating” value was 0. Also, the “SAW Eggs (300 ppm) rating” value in experiment [7] was 0. Besides, the “SCR Eggs (1000 ppm) rating” value in experiment [8] is on record as 0.
Turning to `CCOC(=O)CSC(C[N+](=O)[O-])c1ccc2c(c1)OCO2` (stereo not shown) [Example 19], the “M. incognita (150 ppm) score” value in experiment [1] is given as 9. Besides, the “Rating Against C. elegans (150 ppm)” value in experiment [2] is 9. Besides, in experiment [3], the “SAW (300 ppm) rating” value was determined as 0. For the same compound, the “WCR (50 ppm) rating” value in experiment [4] is listed as 3 (3 = 36-45% kill). The “TSM (300 ppm) rating” value in experiment [5] came to 0. Further, the “CA (300 ppm) rating” value in experiment [6] was 0. The “SAW Eggs (300 ppm) rating” value in experiment [7] is given as 0. Further, the “SCR Eggs (1000 ppm) rating” value in experiment [8] was found to be 0.
